According to patent publication US8178570B2, “Tie-2 modulators and methods of use” (Exelixis, Inc., priority 2003, dated 2012):

Target: Tie-2 (Homo sapiens, UniProt Q02763)
Assay: Tie-2 tyrosine kinase activity: kinase-dependent ATP consumption (pEY substrate, luciferase/luciferin chemiluminescence) or 33P-ATP incorporation into substrate
Type: biochemical
Conditions: Tie-2 (human enzyme) inhibition, Table 2, class symbols A-D
Protocol: One measure of inhibition is Ki. […] The Ki for a compound is determined from the IC50 based on three assumptions. First, only one compound molecule binds to the enzyme and there is no cooperativity. […] Third, the enzymatic rate of the enzyme-inhibitor complex is zero. The rate (i.e., compound concentration) data are fitted to the equation:
[formula] where V is the observed rate, Vmax, is the rate of the free enzyme, I0 is the inhibitor concentration, E0 is the enzyme concentration, and Kd is the dissociation constant of the enzyme-inhibitor complex.
Tyrosine kinase activity is determined by 1) measurement of kinase-dependent ATP consumption by in the presence of a generic substrate such as polyglutamine, tyrosine (pEY), by luciferase/luciferin-mediated chemiluminescence or; 2) incorporation of radioactive phosphate derived from ^33P-ATP into a generic substrate which has been absorbed onto the well surface of polystyrene microtiter plates. Phosphorylated substrate products are quantified by scintillation spectrometry.
Inhibition is indicated as IC50 with following key: A=IC50 less than 50 nM, B=IC50 greater than 50 nM, but less than or equal to 1000 nM, C=IC50 greater than 1000 nM, but less than 10,000 nM, and D=IC50 10,000 nM or greater. The abbreviation for human enzyme, Tie-2, is defined as tyrosine kinase with immunoglobulin and EGF repeats.

Sequence of Tie-2 (Q02763 23-1124): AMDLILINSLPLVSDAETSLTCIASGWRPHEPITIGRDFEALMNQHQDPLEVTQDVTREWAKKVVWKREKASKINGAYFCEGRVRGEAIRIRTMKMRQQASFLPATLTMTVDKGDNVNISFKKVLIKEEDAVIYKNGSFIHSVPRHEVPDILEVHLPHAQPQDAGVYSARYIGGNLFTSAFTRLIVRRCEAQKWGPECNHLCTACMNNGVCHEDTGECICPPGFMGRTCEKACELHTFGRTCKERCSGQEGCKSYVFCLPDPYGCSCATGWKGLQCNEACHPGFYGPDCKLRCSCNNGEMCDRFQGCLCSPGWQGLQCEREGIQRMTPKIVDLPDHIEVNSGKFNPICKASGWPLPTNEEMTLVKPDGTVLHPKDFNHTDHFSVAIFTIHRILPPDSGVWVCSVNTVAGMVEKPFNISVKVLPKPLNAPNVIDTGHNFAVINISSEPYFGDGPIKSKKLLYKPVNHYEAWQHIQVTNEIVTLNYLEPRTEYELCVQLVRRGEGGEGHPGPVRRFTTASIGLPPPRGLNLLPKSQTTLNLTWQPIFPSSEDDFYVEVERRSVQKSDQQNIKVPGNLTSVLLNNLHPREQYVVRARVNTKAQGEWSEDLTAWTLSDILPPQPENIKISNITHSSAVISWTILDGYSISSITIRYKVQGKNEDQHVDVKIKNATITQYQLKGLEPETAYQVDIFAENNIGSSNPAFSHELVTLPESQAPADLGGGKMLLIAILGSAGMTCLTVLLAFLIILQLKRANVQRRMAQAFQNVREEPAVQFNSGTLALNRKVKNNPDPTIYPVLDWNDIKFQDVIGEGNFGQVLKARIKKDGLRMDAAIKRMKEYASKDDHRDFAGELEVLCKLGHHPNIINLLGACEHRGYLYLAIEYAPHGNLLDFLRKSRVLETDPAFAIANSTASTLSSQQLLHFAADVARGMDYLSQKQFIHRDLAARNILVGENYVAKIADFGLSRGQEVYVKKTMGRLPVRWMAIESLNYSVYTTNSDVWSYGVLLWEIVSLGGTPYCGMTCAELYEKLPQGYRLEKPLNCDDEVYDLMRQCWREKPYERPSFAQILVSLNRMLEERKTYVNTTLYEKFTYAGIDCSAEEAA

Compound	IC50 [nM]
O=C(Cc1cccc2ccccc12)N(CCn1nc(-c2ccc3c(c2)OCO3)nc1-c1ccncc1)C1CCCC1 [Entry 64, N-{2-[3-(1,3-benzodioxol-5-yl)-5-pyridin-4-yl-1H-1,2,4-triazol-1-yl]ethyl}-N-cyclopentyl-2-naphthalen-1-ylacetamide]	1000 to 10000
O=C(Cc1cccc2ccccc12)N(CCn1nc(-c2ccncc2)nc1-c1cccc(Br)c1)C1CCCC1 [Entry 65, N-{2-[5-(3-bromophenyl)-3-pyridin-4-yl-1H-1,2,4-triazol-1-yl]ethyl}-N-cyclopentyl-2-naphthalen-1-ylacetamide]	< 50
O=C(Cc1cccc2ccccc12)N(CCn1nc(-c2ccc(Br)cc2)nc1-c1ccncc1)C1CCCC1 [Entry 68, N-{2-[3-(4-bromophenyl)-5-pyridin-4-yl-1H-1,2,4-triazol-1-yl]ethyl}-N-cyclopentyl-2-naphthalen-1-ylacetamide]	< 50
Cc1ccc(-c2nc(-c3ccncc3)nn2CCN(C(=O)Cc2cccc3ccccc23)C2CCCC2)cc1 [Entry 70, N-cyclopentyl-N-{2-[5-(4-methylphenyl)-3-pyridin-4-yl-1H-1,2,4-triazol-1-yl]ethyl}-2-naphthalen-1-ylacetamide]	< 50
Cc1cccc(-c2nc(-c3ccncc3)nn2CCN(C(=O)Cc2cccc3ccccc23)C2CCCC2)c1 [Entry 72, N-cyclopentyl-N-{2-[5-(3-methylphenyl)-3-pyridin-4-yl-1H-1,2,4-triazol-1-yl]ethyl}-2-naphthalen-1-ylacetamide]	< 50
O=C(Cc1cccc2ccccc12)N(CCn1nc(-c2ccncc2)nc1-c1ccc(C(F)(F)F)cc1)C1CCCC1 [Entry 76, N-cyclopentyl-2-naphthalen-1-yl-N-(2-{3-pyridin-4-yl-5-[4-(trifluoromethyl)phenyl]-1H-1,2,4-triazol-1-yl}ethyl)acetamide]	< 50
COc1ccc(-c2nc(-c3ccncc3)nn2CCN(C(=O)Cc2cccc3ccccc23)C2CC2)cc1Cl [Entry 78, N-(2-{5-[3-chloro-4-(methyloxy)phenyl]-3-pyridin-4-yl-1H-1,2,4-triazol-1-yl}ethyl)-N-cyclopropyl-2-naphthalen-1-ylacetamide]	< 50
COc1ccc(-c2nc(-c3ccncc3)nn2CCN(C(=O)Cc2cccc3ccccc23)C(C)C)cc1Cl [Entry 79, N-(2-{5-[3-chloro-4-(methyloxy)phenyl]-3-pyridin-4-yl-1H-1,2,4-triazol-1-yl}ethyl)-N-(1-methylethyl)-2-naphthalen-1-ylacetamide]	≥ 10000
CCc1nc(-c2ccncc2)nn1CCN(C(=O)Cc1cccc2ccccc12)C1CCCC1 [Entry 80, N-cyclopentyl-N-[2-(5-ethyl-3-pyridin-4-yl-1H-1,2,4-triazol-1-yl)ethyl]-2-naphthalen-1-ylacetamide]	< 50
COc1ccc(-c2nc(-c3ccncc3)nn2CCN(C(=O)Nc2ccc(Cl)cc2Cl)C2CCCC2)cc1Cl [Entry 83, N-(2-{5-[3-chloro-4-(methyloxy)phenyl]-3-pyridin-4-yl-1H-1,2,4-triazol-1-yl}ethyl)-N-cyclopentyl-N′-(2,4-dichlorophenyl)urea]	≥ 10000
COc1ccc(-c2nc(-c3ccncc3)nn2CCN(C(=O)Nc2ccccc2OC)C2CCCC2)cc1Cl [Entry 84, N-(2-{5-[3-chloro-4-(methyloxy)phenyl]-3-pyridin-4-yl-1H-1,2,4-triazol-1-yl}ethyl)-N-cyclopentyl-N′-[2-(methyloxy)phenyl]urea]	≥ 10000
COc1ccc(NC(=O)N(CCn2nc(-c3ccncc3)nc2-c2ccc(OC)c(Cl)c2)C2CCCC2)c(OC)c1 [Entry 85, N′-[2,4-bis(methyloxy)phenyl]-N-(2-{5-[3-chloro-4-(methyloxy)phenyl]-3-pyridin-4-yl-1H-1,2,4-triazol-1-yl}ethyl)-N-cyclopentylurea]	≥ 10000
COc1ccc(-c2nc(-c3ccncc3)nn2CCN(C(=O)Nc2ccc(Cl)c(Cl)c2)C2CCCC2)cc1Cl [Entry 88, N-(2-{5-[3-chloro-4-(methyloxy)phenyl]-3-pyridin-4-yl-1H-1,2,4-triazol-1-yl}ethyl)-N-cyclopentyl-N′-(3,4-dichlorophenyl)urea]	≥ 10000
COc1ccc(-c2nc(-c3ccncc3)nn2CCN(C(=O)Nc2ccc(F)cc2)C2CCCC2)cc1Cl [Entry 90, N-(2-{5-[3-chloro-4-(methyloxy)phenyl]-3-pyridin-4-yl-1H-1,2,4-triazol-1-yl}ethyl)-N-cyclopentyl-N′-(4-fluorophenyl)urea]	≥ 10000

More lines, now with the values ahead:

IC50 [nM]	Compound
< 50	O=C(Cc1cccc2ccccc12)N(CCn1nc(-c2ccncc2)nc1-c1ccc2c(c1)OCO2)C1CCCC1 [Entry 63, N-{2-[5-(1,3-benzodioxol-5-yl)-3-pyridin-4-yl-1H-1,2,4-triazol-1-yl]ethyl}-N-cyclopentyl-2-naphthalen-1-ylacetamide]
≥ 10000	O=C(Cc1cccc2ccccc12)N(CCn1nc(-c2cccc(Br)c2)nc1-c1ccncc1)C1CCCC1 [Entry 66, N-{2-[3-(3-bromophenyl)-5-pyridin-4-yl-1H-1,2,4-triazol-1-yl]ethyl}-N-cyclopentyl-2-naphthalen-1-ylacetamide]
< 50	O=C(Cc1cccc2ccccc12)N(CCn1nc(-c2ccncc2)nc1-c1ccc(Br)cc1)C1CCCC1 [Entry 67, N-{2-[5-(4-bromophenyl)-3-pyridin-4-yl-1H-1,2,4-triazol-1-yl]ethyl}-N-cyclopentyl-2-naphthalen-1-ylacetamide]
50 to 1000	Cc1nc(-c2ccnnc2)nn1CCN(C(=O)Cc1cccc2ccccc12)C1CCCC1 [Entry 69, N-cyclopentyl-N-[2-(5-methyl-3-pyridazin-4-yl-1H-1,2,4-triazol-1-yl)ethyl]-2-naphthalen-1-ylacetamide]
1000 to 10000	Cc1ccc(-c2nc(-c3ccncc3)n(CCN(C(=O)Cc3cccc4ccccc34)C3CCCC3)n2)cc1 [Entry 71, N-cyclopentyl-N-{2-[3-(4-methylphenyl)-5-pyridin-4-yl-1H-1,2,4-triazol-1-yl]ethyl}-2-naphthalen-1-ylacetamide]
1000 to 10000	Cc1cccc(-c2nc(-c3ccncc3)n(CCN(C(=O)Cc3cccc4ccccc34)C3CCCC3)n2)c1 [Entry 73, N-cyclopentyl-N-{2-[3-(3-methylphenyl)-5-pyridin-4-yl-1H-1,2,4-triazol-1-yl]ethyl}-2-naphthalen-1-ylacetamide]
< 50	O=C(Cc1cccc2ccccc12)N(CCn1nc(-c2ccncc2)nc1-c1ccc(Cl)cc1Cl)C1CCCC1 [Entry 74, N-cyclopentyl-N-{2-[5-(2,4-dichlorophenyl)-3-pyridin-4-yl-1H-1,2,4-triazol-1-yl]ethyl}-2-naphthalen-1-ylacetamide]
1000 to 10000	O=C(Cc1cccc2ccccc12)N(CCn1nc(-c2ccc(Cl)cc2Cl)nc1-c1ccncc1)C1CCCC1 [Entry 75, N-cyclopentyl-N-{2-[3-(2,4-dichlorophenyl)-5-pyridin-4-yl-1H-1,2,4-triazol-1-yl]ethyl}-2-naphthalen-1-ylacetamide]
≥ 10000	O=C(Cc1cccc2ccccc12)N(CCn1nc(-c2ccc(C(F)(F)F)cc2)nc1-c1ccncc1)C1CCCC1 [Entry 77, N-cyclopentyl-2-naphthalen-1-yl-N-(2-{5-pyridin-4-yl-3-[4-(trifluoromethyl)phenyl]-1H-1,2,4-triazol-1-yl}ethyl)acetamide]
≥ 10000	COc1ccc(-c2nc(-c3ccncc3)nn2CCN(C(=O)Cc2cccc3ccccc23)C2CCN(C)CC2)cc1Cl [Entry 81, N-(2-{5-[3-chloro-4-(methyloxy)phenyl]-3-pyridin-4-yl-1H-1,2,4-triazol-1-yl}ethyl)-N-(1-methylpiperidin-4-yl)-2-naphthalen-1-ylacetamide]
1000 to 10000	COc1ccc(-c2nc(-c3ccncc3)nn2CCN(C(=O)N[C@@H]2C[C@H]2c2ccccc2)C2CCCC2)cc1Cl [Entry 82, N-(2-{5-[3-chloro-4-(methyloxy)phenyl]-3-pyridin-4-yl-1H-1,2,4-triazol-1-yl}ethyl)-N-cyclopentyl-N′-[(1R,2S)-2-phenylcyclopropyl]urea]
1000 to 10000	COc1ccc(-c2nc(-c3ccncc3)nn2CCN(C(=O)Nc2ccccc2C)C2CCCC2)cc1Cl [Entry 86, N-(2-{5-[3-chloro-4-(methyloxy)phenyl]-3-pyridin-4-yl-1H-1,2,4-triazol-1-yl}ethyl)-N-cyclopentyl-N′-(2-methylphenyl)urea]
1000 to 10000	CCc1ccccc1NC(=O)N(CCn1nc(-c2ccncc2)nc1-c1ccc(OC)c(Cl)c1)C1CCCC1 [Entry 87, N-(2-{5-[3-chloro-4-(methyloxy)phenyl]-3-pyridin-4-yl-1H-1,2,4-triazol-1-yl}ethyl)-N-cyclopentyl-N′-(2-ethylphenyl)urea]
≥ 10000	CCCCCCNC(=O)N(CCn1nc(-c2ccncc2)nc1-c1ccc(OC)c(Cl)c1)C1CCCC1 [Entry 89, N-(2-{5-[3-chloro-4-(methyloxy)phenyl]-3-pyridin-4-yl-1H-1,2,4-triazol-1-yl}ethyl)-N-cyclopentyl-N′-hexylurea]
≥ 10000	COc1ccc(NC(=O)N(CCn2nc(-c3ccncc3)nc2-c2ccc(OC)c(Cl)c2)C2CCCC2)cc1 [Entry 91, N-(2-{5-[3-chloro-4-(methyloxy)phenyl]-3-pyridin-4-yl-1H-1,2,4-triazol-1-yl}ethyl)-N-cyclopentyl-N′-[4-(methyloxy)phenyl]urea]
